In PubChem BioAssay (NCI):
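The compound was tested at five concentrations on cells cultured in 96-well plates, with a 48-hour exposure period. GI50: concentration for 50% inhibition of growth. TGI marks complete inhibition of growth.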

How the values were obtained:
Assay in all cases: NCI-60 cell line screen, 48 h
[1] = tested on: HCT-116 colon
[2] = tested on: MDA-MB-231 breast
[3] = tested on: HCC-2998 colon
[4] = tested on: SW-620 colon
[5] = tested on: OVCAR-8 ovarian
[6] = tested on: MALME-3M melanoma
[7] = tested on: SK-OV-3 ovarian
[8] = tested on: HT29 colon
[9] = tested on: OVCAR-4 ovarian
[10] = tested on: DU-145 prostate
[11] = tested on: HOP-62 NSCLC
[12] = tested on: NCI/ADR-RES ovarian
[13] = tested on: 786-0 renal
[14] = tested on: NCI-H226 lung
[15] = tested on: U251 CNS
[16] = tested on: CCRF-CEM leukemia
[17] = tested on: SK-MEL-2 melanoma
[18] = tested on: KM12 colon
[19] = tested on: LOX IMVI melanoma
[20] = tested on: K-562 leukemia
[21] = tested on: COLO 205 colon
[22] = tested on: SF-268 CNS
[23] = tested on: SK-MEL-5 melanoma
[24] = tested on: TK-10 renal
[25] = tested on: MOLT-4 leukemia
[26] = tested on: CAKI-1 renal
[27] = tested on: OVCAR-3 ovarian
[28] = tested on: NCI-H23 lung
[29] = tested on: RPMI-8226 leukemia
[30] = tested on: HS 578T breast
[31] = tested on: SK-MEL-28 melanoma
[32] = tested on: MCF7 breast
[33] = tested on: BT-549 breast
[34] = tested on: SF-295 CNS
[35] = tested on: SNB-75 CNS
[36] = tested on: EKVX NSCLC
[37] = tested on: T-47D breast
[38] = tested on: A549 NSCLC
[39] = tested on: SF-539 CNS
[40] = tested on: UO-31 renal
[41] = tested on: HCT-15 colon
[42] = tested on: A498 renal
[43] = tested on: RXF 393 renal
[44] = tested on: NCI-H460 lung
[45] = tested on: UACC-257 melanoma
[46] = tested on: SN12C renal
[47] = tested on: PC-3 prostate
[48] = tested on: NCI-H522 lung
[49] = tested on: MDA-MB-435
[50] = tested on: UACC-62 melanoma
[51] = tested on: HL-60(TB) leukemia
[52] = tested on: OVCAR-5 ovarian
[53] = tested on: M14 melanoma
[54] = tested on: SNB-19 CNS
[55] = tested on: ACHN renal
[56] = tested on: SR leukemia
[57] = tested on: IGROV1 ovarian

Oc1nc(N2CCOCC2)sc1/C=C1\C=Nc2ccccc21
GI50 [1]: > 100 µM
TGI [1]: > 100 µM
GI50 [2]: > 100 µM
TGI [2]: > 100 µM
GI50 [3]: > 100 µM
TGI [3]: > 100 µM
GI50 [4]: > 100 µM
TGI [4]: > 100 µM
GI50 [5]: > 100 µM
TGI [5]: > 100 µM
GI50 [6]: > 100 µM
TGI [6]: > 100 µM
GI50 [7]: > 100 µM
TGI [7]: > 100 µM
GI50 [8]: 65.2 µM
TGI [8]: > 100 µM
GI50 [9]: > 100 µM
TGI [9]: > 100 µM
GI50 [10]: > 100 µM
TGI [10]: > 100 µM
GI50 [11]: > 100 µM
TGI [11]: > 100 µM
GI50 [12]: > 100 µM
TGI [12]: > 100 µM
GI50 [13]: > 100 µM
TGI [13]: > 100 µM
GI50 [14]: > 100 µM
TGI [14]: > 100 µM
GI50 [15]: > 100 µM
TGI [15]: > 100 µM
GI50 [16]: > 100 µM
TGI [16]: > 100 µM
GI50 [17]: > 100 µM
TGI [17]: > 100 µM
GI50 [18]: > 100 µM
TGI [18]: > 100 µM
GI50 [19]: > 100 µM
TGI [19]: > 100 µM
GI50 [20]: > 100 µM
TGI [20]: > 100 µM
GI50 [21]: > 100 µM
TGI [21]: > 100 µM
GI50 [22]: > 100 µM
TGI [22]: > 100 µM
GI50 [23]: > 100 µM
TGI [23]: > 100 µM
GI50 [24]: > 100 µM
TGI [24]: > 100 µM
GI50 [25]: > 100 µM
TGI [25]: > 100 µM
GI50 [26]: > 100 µM
TGI [26]: > 100 µM
GI50 [27]: > 100 µM
TGI [27]: > 100 µM
GI50 [28]: > 100 µM
TGI [28]: > 100 µM
GI50 [29]: > 100 µM
TGI [29]: > 100 µM
GI50 [30]: > 100 µM
TGI [30]: > 100 µM
GI50 [31]: > 100 µM
TGI [31]: > 100 µM
GI50 [32]: > 100 µM
TGI [32]: > 100 µM
GI50 [33]: > 100 µM
TGI [33]: > 100 µM
GI50 [34]: > 100 µM
TGI [34]: > 100 µM
GI50 [35]: 64.8 µM
TGI [35]: > 100 µM
GI50 [36]: > 100 µM
TGI [36]: > 100 µM
GI50 [37]: > 100 µM
TGI [37]: > 100 µM
GI50 [38]: > 100 µM
TGI [38]: > 100 µM
GI50 [39]: > 100 µM
TGI [39]: > 100 µM
GI50 [40]: > 100 µM
TGI [40]: > 100 µM
GI50 [41]: > 100 µM
TGI [41]: > 100 µM
GI50 [42]: > 100 µM
TGI [42]: > 100 µM
GI50 [43]: > 100 µM
TGI [43]: > 100 µM
GI50 [44]: > 100 µM
TGI [44]: > 100 µM
GI50 [45]: > 100 µM
TGI [45]: > 100 µM
GI50 [46]: > 100 µM
TGI [46]: > 100 µM
GI50 [47]: > 100 µM
TGI [47]: > 100 µM
GI50 [48]: > 100 µM
TGI [48]: > 100 µM
GI50 [49]: > 100 µM
TGI [49]: > 100 µM
GI50 [50]: > 100 µM
TGI [50]: > 100 µM
GI50 [51]: > 100 µM
TGI [51]: > 100 µM
GI50 [52]: > 100 µM
TGI [52]: > 100 µM
GI50 [53]: > 100 µM
TGI [53]: > 100 µM
GI50 [54]: > 100 µM
TGI [54]: > 100 µM
GI50 [55]: > 100 µM
TGI [55]: > 100 µM
GI50 [56]: 82 µM
TGI [56]: > 100 µM
GI50 [57]: > 100 µM
TGI [57]: > 100 µM
